Results: patent US7229986B2, “Melanin-concentrating hormone antagonist” (Takeda Pharmaceutical Company Ltd., priority 2000, dated 2007)
Counter-ions that a name gives are not always drawn.

Molecular target: SLC-1 (UniProt Q99705)
Assay: Determination of antagonist activity using GTPγS binding assay
Format: biochemical, human, rat
Settings: inhibition of MCH-stimulated [35S]-GTPγS binding, SLC-1 expressing CHO cell membrane fractions, 25° C., 1 hour
Procedure: Membrane fraction was prepared by the following method, using the human SLC-1 expressing CHO cell clone 57 obtained in Reference Example 1-10, and the rat SLC-1 expressing CHO cell clone 44 obtained in Reference Example 1-4.
The human and rat SLC-1 expressing CHO cells (1×10^8) were scraped in buffer saline phosphate (pH 7.4) to which 5 mM EDTA (ethylenediaminetetraacetic acid) had been added, and centrifuged. 10 ml of homogenized buffer (10 mM NaHCO3, 5 mM EDTA, pH 7.5) was added to the cell pellets, and they were homogenized using a Polytron homogenizer. […]
After this reaction mixture was allowed to react at 25° C. for 1 hour under stirring, it was filtered under vacuum using a glass filter (GF-C), then the filter was washed 3 times with 300 μl of washing solution (50 mM Tris-HCl buffer solution pH 7.5). 50 ml of liquid scintillator was added to the glass filter, and residual radioactivity was determined using a liquid scintillation counter.
The IC50 value of the compound was calculated from the binding inhibition rate (%), based on the definition that the binding inhibition rate (%)=(radioactivity when compound and MCH were added−radioactivity when DMSO solution was added)/(radioactivity when MCH was added−radioactivity when DMSO solution was added)×100.

IC50 | Structure (SMILES)
0.02 µM | CN(C)C/C=C/c1ccc2c(c1)CCCN2C(=O)c1ccc(-c2ccc(Cl)cc2)cc1 [Example 5, (E)-3-[1-[(4′-Chloro[1,1-biphenyl]-4-yl)carbonyl]-1,2,3,4-tetrahydro-6-quinolinyl]-N,N-dimethyl-2-propen-1-amine]
0.3 µM | CN(C)CCCc1ccc2c(c1)CCCN2C(=O)c1ccc(-c2ccccc2)cc1 [Example 1, 3-[1-([1,1′-Biphenyl]-4-ylcarbonyl)-1,2,3,4-tetrahydro-6-quinolinyl]-N,N-dimethyl-1-propanamine]

Tested on: not given
Assay: not given
Settings: not given

Structure (SMILES) | melting point
CN(C)C/C=C/c1ccc2c(c1)CCCN2C(=O)c1ccc(-c2ccc(Cl)cc2)cc1 [Example 5, (E)-3-[1-[(4′-Chloro[1,1-biphenyl]-4-yl)carbonyl]-1,2,3,4-tetrahydro-6-quinolinyl]-N,N-dimethyl-2-propen-1-amine] | 162 to 164 °C
O=C(CCC(=O)N1CCC(c2ccc(Cl)cc2)CC1)c1ccc2c(c1)CCN(C(=O)C(F)(F)F)CC2 [Example 14, 4-[4-(4-Chlorophenyl)-1-piperidinyl]-4-oxo-1-[3-(trifluoroacetyl)-2,3,4,5-tetrahydro-1H-3-benzazepin-7-yl]-1-butanone] | 131 to 132 °C
COc1ccc(COc2ccc(C(=O)N3CCc4cc(/C=C/CN(C)C)ccc43)cc2)cc1 [Example 9, (E)-3-[1-[4-[(4-Methoxybenzyl)oxy]benzoyl]-2,3-dihydro-1H-indol-5-yl]-N,N-dimethyl-2-propen-1-amine] | 164 to 166 °C
CN(C)C/C=C/c1ccc2c(c1)N(C(=O)c1ccc(-c3ccccc3)cc1)CCCC2 (as salt: hydrochloride) [Example 2, (E)-3-[1-([1,1′-Biphenyl]-4-ylcarbonyl)-2,3,4,5-tetrahydro-1H-1-benzazepin-8-yl]-N,N-dimethyl-2-propen-1-amine hydrochloride] | 112 to 113 °C
O=C(CCC(=O)N1CCC(c2ccc(Cl)cc2)CC1)c1ccc2c(c1)CCNCC2 [Example 15, 4-[4-(4-Chlorophenyl)-1-piperidinyl]-4-oxo-1-(2,3,4,5-tetrahydro-1H-3-benzazepin-7-yl)-1-butanone] | 148 to 149 °C
CN(C)C/C=C/c1ccc2c(c1)CCN2C(=O)c1ccc(-c2ccccc2)cc1 [Example 7, (E)-3-[1-[([1,1′-Biphenyl]-4-yl)carbonyl]-2,3-dihydro-1H-indol-5-yl]-N,N-dimethyl-2-propen-1-amine] | 174 to 176 °C
CN(C)CCCc1ccc2c(c1)CCCN2C(=O)c1ccc(-c2ccccc2)cc1 [Example 1, 3-[1-([1,1′-Biphenyl]-4-ylcarbonyl)-1,2,3,4-tetrahydro-6-quinolinyl]-N,N-dimethyl-1-propanamine] | 100 to 101 °C
CN(C)CCCc1ccc2c(c1)N(C(=O)c1ccc(-c3ccccc3)cc1)CCCC2 (as salt: hydrochloride) [Example 3, 3-[1-([1,1′-Biphenyl]-4-ylcarbonyl)-2,3,4,5-tetrahydro-1H-1-benzazepin-8-yl]-N,N-dimethyl-1-propanamine hydrochloride] | 84 to 86 °C
O=C(c1ccc(-c2ccc(Cl)cc2)cc1)N1CCCc2cc(/C=C/CN3CCCCC3)ccc21 [Example 6, 1-[(4′-Chloro[1,1-biphenyl]-4-yl)carbonyl]-6-[(E)-3-piperidino-1-propenyl]-1,2,3,4-tetrahydroquinoline] | 141 to 143 °C
CCCN(CCC)CCc1ccc2c(c1)N(Cc1cccc3ccccc13)CCO2.Cl | 177 to 178 °C

The remaining lines, values ahead:

melting point | Structure (SMILES)
243 to 247 °C (dec.) | O=C(CCCN1CCC(c2ccc(Cl)cc2)CC1)c1ccc2c(c1)CCNCC2 (as salt: HCl) [Example 34, 4-[4-(4-Chlorophenyl)-1-piperidinyl]-1(2,3,4,5-tetrahydro-1H-3-benzazepin-7-yl)-1-butanone]
121 to 122 °C | CCCN(CCC)C(=O)Cc1ccc2c(c1)NC(=O)CO2 [Example 133, N,N-Dipropyl-(3,4-dihydro-2H-1,4-benzoxazine-3-oxo-6-yl) acetamide]
112 to 113 °C | O=C(CCCC(=O)N1CCC(c2ccc(Cl)cc2)CC1)c1ccc2c(c1)CCNCC2 [Example 205, 5-[4-(4-Chlorophenyl)-1-piperidinyl]-5-oxo-1-(2,3,4,5-tetrahydro-1H-3-benzazepin-7-yl)-1-pentanone]
114 °C | O=C(CCC(=O)N1CCC(c2ccccc2)CC1)c1ccc2c(c1)CCNCC2 [Example 32, 4-Oxo-4-(phenyl-1-piperidinyl)-1-(2,3,4,5-tetrahydro-1H-3-benzazepin-7-yl)-1-butanone]
128 to 130 °C | O=C(CCC(=O)N1CCC(c2ccc(Cl)cc2)CC1)c1ccc2c(c1)CCN(C1CCCCC1)CC2 [Example 195, 4-[4-(4-Chlorophenyl)-1-piperidinyl]-1-(3-cyclohexyl-2,3,4,5-tetrahydro-1H-3-benzazepin-7-yl)-4-oxo-1-butanone]
143 to 145 °C | CN1CCc2ccc(C(=O)CCC(=O)N3CCC(c4ccc(Cl)cc4)CC3)cc2CC1 [Example 16, 4-[4-(4-Chlorophenyl)-1-piperidinyl]-4-oxo-1-(3-methyl-2,3,4,5-tetrahydro-1H-3-benzazepin-7-yl)-1-butanone]
132 to 133 °C | O=C(CCC(=O)N1CCC(c2ccccc2)CC1)c1ccc2c(c1)CCN(C(=O)C(F)(F)F)CC2 [Example 31, 4-Oxo-4-(phenyl-1-piperidinyl)-1-[3-(trifluoroacetyl)-2,3,4,5-tetrahydro-1H-3-benzazepin-7-yl]-1-butanone]
123 to 125 °C | O=C(CCC(=O)N1CCC(c2ccc(Cl)cc2)CC1)c1ccc2c(c1)CCN(CC1CCCO1)CC2 (stereo not shown) [Example 194, 4-[4-(4-Chlorophenyl)-1-piperidinyl]-4-oxo-1-[3-(tetrahydro-2-furanylmethyl)-2,3,4,5-tetrahydro-1H-3-benzazepin-7-yl]-1-butanone]
130 to 133 °C | CCCN(CCC)CCc1ccc2c(c1)N(S(=O)(=O)c1ccc(Cl)cc1)CCO2 (as salt: succinate) [Example 137, 4-(4-Chlorobenzenesulfonyl)-3,4-dihydro-6-[2-(N,N-dipropylamino)ethyl]-2H-1,4-benzoxazine succinate]
248 to 252 °C (dec.) | CN1CCc2ccc(C(=O)CCCN3CCC(c4ccc(Cl)cc4)CC3)cc2CC1 (as salt: HCl) (hydrate or solvate) [Example 35, 4-[4-(4-Chlorophenyl)-1-piperidinyl]-1-(3-methyl-2,3,4,5-tetrahydro-1H-3-benzazepin-7-yl)-1-butanone]
